In brackets after ≈: the same amount, converted by molar mass.
Assays:
Assay type in all cases: cell-based
S. aureus A798 = assay: MIC by microdilution (NCCLS) against S. aureus A798; conditions: pH 7.2-7.3; for MIC: Staphylococcus aureus, A798, cation-adjusted Mueller-Hinton Broth
Procedure: (§1) These assays have been performed following the description given in “Methods for dilution Antimicrobial Susceptibility Tests for Bacteria that Grow Aerobically, 4th ed.; Approved standard: NCCLS Document M7-A4; National Committee for Clinical Laboratory Standards Villanova, Pa., USA, 1997”. Minimal inhibitory concentrations (MICs; mg/L) were determined in cation-adjusted Mueller-Hinton Broth (BBL) by a microdilution method following NCCLS guidelines (National Committee for Clinical Laboratory Standards. Methods for Dilution Antimicrobial Susceptibility). The pH of the test medium was 7.2-7.3.

S. Pneumoniae 49619 = assay: MIC by microdilution (NCCLS) against S. Pneumoniae 49619; conditions: cation-adjusted Mueller-Hinton Broth, pH 7.2-7.3; for MIC: Streptococcus pneumoniae
Procedure: as §1

M. catarrhalis A894 = assay: MIC by microdilution (NCCLS) against M. catarrhalis A894; conditions: pH 7.2-7.3; for MIC: Moraxella catarrhalis, A894, cation-adjusted Mueller-Hinton Broth
Procedure: as §1

[1] = cation-adjusted Mueller-Hinton Broth

Row | MIC (S. aureus A798) | MIC (S. Pneumoniae 49619) | MIC (M. catarrhalis A894) | MIC S. aureus A798 (S. aureus A798; [1]) | MIC S. Pneumoniae 49619 (S. Pneumoniae 49619) | MIC M. catarrhalis A894 (M. catarrhalis A894; [1]) | Structure (SMILES)
1 | 1 µg/mL (≈ 2.03 µM) | 2 µg/mL (≈ 4.06 µM) | 0.25 µg/mL (≈ 0.508 µM) | – | – | – | COc1ccc2nccc(C(O)CN3CCC(C(=O)Nc4ccc5c(c4)NC(=O)CS5)CC3)c2c1 (racemic) [Example 12, (2RS)-1-[2-hydroxy-2-(6-methoxy-quinolin-4-yl)-ethyl]-piperidine-4-carboxylic acid (3-oxo-3,4-dihydro-2H-benzo[1,4]thiazin-6-yl)-amide]
2 | 0.06 µg/mL (≈ 0.134 µM) | 0.06 µg/mL (≈ 0.134 µM) | 0.5 µg/mL (≈ 1.11 µM) | – | – | – | COc1ccc2nccc(OC[C@H]3CC[C@H](C(=O)Nc4ccc5c(c4)OCCO5)CC3)c2c1 [Example 1, trans-4-(6-methoxy-quinolin-4-yloxymethyl)-cyclohexanecarboxylic acid (2,3-dihydro-benzo[1,4]dioxin-6-yl)-amide]
3 | – | – | – | <0.03 µg/mL | 0.125 µg/mL (≈ 0.268 µM) | <0.03 µg/mL | COc1cnc2cccc(CCC3(O)CCC(C(=O)N/C=C/c4cc(F)ccc4F)CC3)c2c1 (stereo not drawn) [Example 26, trans-4-hydroxy-4-[2-(3-methoxy-quinolin-5-yl)-ethyl]-cyclohexanecarboxylic acid [2-(2,5-difluoro-phenyl)-vinyl]-amide]
4 | 1 µg/mL (≈ 2.09 µM) | 8 µg/mL (≈ 16.8 µM) | 8 µg/mL (≈ 16.8 µM) | – | – | – | COc1ccc2nccc(CCC3(O)CCC(C(=O)N(C)c4ccc5c(c4)OCCO5)CC3)c2n1 (stereo not drawn) [Example 39, 4-hydroxy-4-[2-(6-methoxy-[1,5]naphthyridin-4-yl)-ethyl]-cyclohexanecarboxylic acid (2,3-dihydro-benzo[1,4]dioxin-6-yl)-methyl-amide]
